According to ChEMBL document CHEMBL2331263, “Non-benzimidazole containing inhibitors of respiratory syncytial virus” (Bioorg Med Chem Lett, 2013):
pIC50: −log10 of the molar value.

Columns and labels:
[1] = Octanol-neutral buffer partition co-efficient, log D of the compound at pH 7.4
[2] = Apparent permeability in dog RRCK cells; conditions: MDCK
[3] = Apparent intrinsic clearance in human liver microsomes
[4] = tested on: Respiratory syncytial virus; test: Antiviral activity against Respiratory syncytial virus A2 infected in A549 cells after 3 days by CelltitreGlo assay; assay type: functional, organism-based; conditions: human respiratory syncytial virus, A2, A549, 72 h
[5] = Apparent intrinsic clearance in rat liver microsomes; assay type: ADME, Microsome; conditions: read-out: CLH(app)
[6] = Intrinsic clearance in rat plasma
Hepatocyte = test: Apparent intrinsic clearance in human hepatocytes assessed per million cells
[7] = Apparent permeability in MDCK cells selected for low expression of efflux transporters; conditions: dog
Liver microsomes = test: Apparent intrinsic clearance in rat liver microsomes assessed per mg protein
[8] = Oral absorption in rat; assay type: ADME, organism-based; conditions: in vivo
[9] = Drug excretion in rat urine; assay type: ADME; conditions: read-out: Drug excretion
[10] = Half life in iv dosed rat; conditions: in vivo
[11] = Volume of distribution in steady state in rat; conditions: in vivo
[12] = Oral bioavailability in rat; conditions: in vivo

## COC(=O)N1CCC(n2c(=O)n(Cc3nc(C)c(C)n3CCCCO)c3cnccc32)CC1
[1]
  logD: -0.5
[2]
  Papp: 1 ×10⁻⁶ cm/s
[3]
  microsomal CLint: 15 µL/min/mg
[4]
  pIC50: 7.26

## O=c1n(Cc2nc(-c3cccnc3)cn2CCCCO)c2cnccc2n1C1CC1
[5]
  microsomal CLint: 44 µL/min/mg
[1]
  logD: 1.2
[6]
  CLint scaled: 95 mL/min/kg
Hepatocyte
  CLH(app): < 2.2 µL/min
[3]
  microsomal CLint: < 8 µL/min/mg
[4]
  pIC50: 6.58
[7]
  Papp: 4 ×10⁻⁶ cm/s

## Cc1ccc(CCn2cc(-c3cccnc3)nc2Cn2c(=O)n(C3CC3)c3ccncc32)cn1
[1]
  logD: 1.5
[3]
  microsomal CLint: 32 µL/min/mg
[4]
  pIC50: 7.02
[7]
  Papp: 2 ×10⁻⁶ cm/s

## COCc1cn(CCCCO)c(Cn2c(=O)n(C3CC3)c3ccncc32)n1
[1]
  logD: 0.2
[2]
  Papp: 1 ×10⁻⁶ cm/s
[3]
  microsomal CLint: 9 µL/min/mg
[4]
  pIC50: 5.22

## Cc1cc(CCn2cc(-c3cccnc3)nc2Cn2c(=O)n(C3CC3)c3ccncc32)no1
[1]
  logD: 1.4
[3]
  microsomal CLint: 17 µL/min/mg
[4]
  pIC50: 6.86
[7]
  Papp: 4 ×10⁻⁶ cm/s

## O=c1n(Cc2nc(-c3nccs3)cn2CCCCO)c2cnccc2n1C1CC1
Liver microsomes
  CLH(app): 21.1 µL/min
[8]
  Fa: > 60%
[9]
  dose excreted: 16%
[1]
  logD: 1.3
[2]
  Papp: 4 ×10⁻⁶ cm/s
[10]
  half-life: 1.5 h
[11]
  Vd: 3.5 L/kg
[12]
  bioavailability: 34%
[6]
  CLint scaled: 48 mL/min/kg
Hepatocyte
  CLH(app): < 2.2 µL/min
[3]
  microsomal CLint: < 8 µL/min/mg
[4]
  pIC50: 7.24
[7]
  Papp: 4 ×10⁻⁶ cm/s

## COC(=O)c1nc(Cn2c(=O)n(C3CC3)c3ccncc32)n(CCCCO)c1C
[1]
  logD: 0.8
[2]
  Papp: 2 ×10⁻⁶ cm/s
[3]
  microsomal CLint: 9 µL/min/mg
[4]
  pIC50: 4.91

## O=c1n(Cc2nc(-c3ncco3)cn2CCCCO)c2cnccc2n1C1CC1
[1]
  logD: 0.6
[3]
  microsomal CLint: < 8 µL/min/mg
[4]
  pIC50: 7.02

## COC(=O)N1CCC(n2c(=O)n(Cc3nc4ccccc4n3CCCCO)c3ccccc32)CC1
[1]
  logD: 3.4
[2]
  Papp: 36 ×10⁻⁶ cm/s
[3]
  microsomal CLint: 44 µL/min/mg
[4]
  pIC50: 9.30

## CC(C)n1nc(Cn2nc3ccccc3c2OCCCO)c2ccccc21
[1]
  logD: 3.5
[3]
  microsomal CLint: 246 µL/min/mg
[4]
  pIC50: 6.00
[7]
  Papp: 16 ×10⁻⁶ cm/s

## Cc1ncc(CCn2cc(-c3cccnc3)nc2Cn2c(=O)n(C3CC3)c3ccncc32)o1
[1]
  logD: 0.9
[3]
  microsomal CLint: 10 µL/min/mg
[4]
  pIC50: 5.65

## CC(C)n1nc(Cn2nc3ccccc3c2OCCCCO)c2ccccc21
[1]
  logD: 3.9
[4]
  pIC50: 7.19

## O=c1n(Cc2nc(-c3ncccn3)cn2CCCCO)c2cnccc2n1C1CC1
[1]
  logD: 0.6
Hepatocyte
  CLH(app): < 2.2 µL/min
[3]
  microsomal CLint: < 8 µL/min/mg
[4]
  pIC50: 6.63
[7]
  Papp: 1 ×10⁻⁶ cm/s

## Cn1nccc1-c1cn(CCCCO)c(Cn2c(=O)n(C3CC3)c3ccncc32)n1
[1]
  logD: 0.9
[3]
  microsomal CLint: < 8 µL/min/mg
[4]
  pIC50: < 4.70

## Cc1nnc(-c2cn(CCCCO)c(Cn3c(=O)n(C4CC4)c4ccncc43)n2)s1
[1]
  logD: 0.9
[3]
  microsomal CLint: < 8 µL/min/mg
[4]
  pIC50: 5.29

## CC(C)n1nc(CCn2nc(CCCCO)c3ccccc32)c2cnccc21
[1]
  logD: 4.4
[3]
  microsomal CLint: 242 µL/min/mg
[4]
  pIC50: 4.64
[7]
  Papp: 8 ×10⁻⁶ cm/s

## CC(C)n1nc(Cn2c(=O)c3ccccc3n2CCCCO)c2ccccc21
[1]
  logD: 2.9
[3]
  microsomal CLint: 462 µL/min/mg
[4]
  pIC50: 6.77
[7]
  Papp: 32 ×10⁻⁶ cm/s

## Cc1cc(CCn2cc(-c3cccnc3)nc2Cn2c(=O)n(C3CC3)c3ccncc32)on1
[1]
  logD: 1.4
[4]
  pIC50: 7.39
[7]
  Papp: 3 ×10⁻⁶ cm/s

## Cn1ccnc1-c1cn(CCCCO)c(Cn2c(=O)n(C3CC3)c3ccncc32)n1
[1]
  logD: 0.8
[3]
  microsomal CLint: < 8 µL/min/mg
[4]
  pIC50: 4.98

## CC(C)n1nc(Cn2nc3c(c2CCCCO)CCCC3)c2ccccc21
[1]
  logD: 3.6
[3]
  microsomal CLint: > 320 µL/min/mg
[4]
  pIC50: 6.39
[7]
  Papp: 12 ×10⁻⁶ cm/s

## CC(C)n1nc(Cn2nc3ccccc3c2C(=O)NCCCO)c2ccccc21
[1]
  logD: 2.4
[4]
  pIC50: 5.53

## COC(=O)N1CCC(n2ccc(Cc3nc4ccccc4n3CCCCO)n2)CC1
[1]
  logD: 2
[2]
  Papp: 6 ×10⁻⁶ cm/s
[3]
  microsomal CLint: 110 µL/min/mg
[4]
  pIC50: < 4.85

## O=c1n(Cc2nc(Cl)c(Cl)n2CCCCO)c2cnccc2n1C1CC1
[1]
  logD: 2
[3]
  microsomal CLint: < 8 µL/min/mg
[4]
  pIC50: 6.96

## O=c1n(Cc2nc(-c3ccccn3)cn2CCCCO)c2cnccc2n1C1CC1
[1]
  logD: 1.4
Hepatocyte
  CLH(app): < 2.2 µL/min
[3]
  microsomal CLint: < 8 µL/min/mg
[4]
  pIC50: 6.63
[7]
  Papp: 5 ×10⁻⁶ cm/s

## O=c1n(Cc2nc3ccccc3n2CCCCO)c2cnccc2n1C1CC1
[4]
  pIC50: 7.89

## CC(C)n1nc(Cn2nc3ccccc3c2CCCO)c2ccccc21
[1]
  logD: 3.8
[3]
  microsomal CLint: 78 µL/min/mg
[4]
  pIC50: 6.56
[7]
  Papp: 14 ×10⁻⁶ cm/s

## CC(C)n1nc(Cn2nc3ccccc3c2CCCCO)c2ccccc21
[1]
  logD: 4.4
[4]
  pIC50: 6.66

## CC(=O)N1CCC(Cn2nc3ccccc3c2CCCCO)CC1
[1]
  logD: 1.5
[2]
  Papp: 2 ×10⁻⁶ cm/s
[3]
  microsomal CLint: 11 µL/min/mg
[4]
  pIC50: < 4.70

## O=c1n(Cc2nc3c(n2CCCCO)CCCC3)c2cnccc2n1C1CC1
[1]
  logD: 1.8
[2]
  Papp: 4 ×10⁻⁶ cm/s
[3]
  microsomal CLint: 65 µL/min/mg
[4]
  pIC50: 8.40
